Here are results for 28 compounds from US8822468B2 (Novartis AG, priority 2008, dated 2014).

A word on the IC50: it is the point on the concentration scale where inhibition reaches its midpoint.

The assay deals with T1, cMET receptor tyrosine kinase (GST-cMET (969-1390)) (Homo sapiens, UniProt P08581).
T1 construct: made in house
T1 sequence (P08581 969-1390): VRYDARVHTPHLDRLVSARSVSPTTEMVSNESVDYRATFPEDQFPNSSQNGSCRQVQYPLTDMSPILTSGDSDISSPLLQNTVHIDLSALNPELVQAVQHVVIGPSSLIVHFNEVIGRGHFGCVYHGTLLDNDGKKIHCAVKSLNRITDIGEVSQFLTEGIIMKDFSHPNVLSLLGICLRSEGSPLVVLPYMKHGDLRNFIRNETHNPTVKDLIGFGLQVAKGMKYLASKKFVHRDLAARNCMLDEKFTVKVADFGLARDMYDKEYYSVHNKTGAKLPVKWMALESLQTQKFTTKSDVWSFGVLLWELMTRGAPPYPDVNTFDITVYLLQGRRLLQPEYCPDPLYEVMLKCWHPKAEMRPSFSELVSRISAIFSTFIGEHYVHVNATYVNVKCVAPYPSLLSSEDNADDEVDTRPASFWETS
Description: EPK cMET profiling assay (LanthaScreen TR-FRET antibody based kinase phosphorylation assay). It is filed as biochemical. The conditions noted are these: purified recombinant GST-cMET (969-1390), 2 μM ATP, 50 nM Fluorescein-PolyEAY, 60 minutes at room temperature; read-out: c-Met IC50. As to the method:
A number of compounds of the present invention were assayed in an antibody based kinase phosphorylation assay as follows.
EPK cMET Profiling Assay:
The EPK kinase assay for cMET receptor tyrosine kinase was developed, using the purified recombinant GST-fusion protein, containing the cytoplasmic domain of the enzyme. GST-cMET (969-1390) was purified by affinity chromatography.
The kinase assay is based on the LanthaScreen™ technology. LanthaScreen™ is the detection of Time-Resolved Fluorescence Resonance Energy Transfer (TR-FRET) using lanthanide chelates to measure interactions between various binding partners. In a TR-FRET kinase assay, a long-lifetime lanthanide donor species is conjugated to an antibody that specifically binds to a phosphorylated product of a kinase reaction that is labeled with a suitable acceptor fluorophore. This antibody-mediated interaction brings the lanthanide donor and the acceptor into proximity such that resonance energy transfer can take place, resulting in a detectible increase in the FRET signal.
The kinase reactions were performed in 384 well microtiter plates in a total reaction volume of 9.05 μL. The assay plates were prepared with 0.05 μL per well of test compound in the appropriate test concentration, as described under “preparation of compound dilutions”. The reactions were started by combining 4.5 μL of ATP solution with 4.5 μL of enzyme-substrate mix (consisting of kinase and substrate). The final concentrations in the kinase reactions were 35 mM Tris/HCl, 1 mM DTT, 0.025% Tween20, 10 μM sodium orthovanadate, 0.25% BSA, 0.6% DMSO, 10 mM MgCl2, 3 mM MnCl2, 2 μM ATP, 50 nM Fluorescein-PolyEAY, and 0.3 nM enzyme.
The reactions were incubated for 60 minutes at room temperature and stopped by adding 4.5 μL of stop buffer (50 mM EDTA, 0.04% NP40, 20 mM Tris/HCl).
Subsequently 4.5 μL of detection mix (50 mM Tris/HCl, 2 mM DTT, 0.05% Tween20, 20 μM sodium orthovanadate, 1% BSA, 1.72 μg/ml Tb-PY20 antibody) were added to the stopped reactions. After 30 minutes incubation at room temperature, the plates were measured in a BMG Pherastar fluorescence reader. The effect of compound on the enzymatic activity was in all assays obtained from the linear progress curves and determined from one reading (end point measurement).
Test compounds were dissolved in DMSO (10 mM) and transferred into 1.4 mL flat bottom or V-shaped Matrix tubes carrying a unique 2D matrix. The stock solutions were stored at −20° C. if not used immediately. For the test procedure the vials were defrosted and identified by a scanner whereby a working sheet was generated that guided the subsequent working steps.
Compound dilutions were made in 96 well plates. This format enabled the assay of maximally 40 individual test compounds at 8 concentrations (single points) including 4 reference compounds. The dilution protocol included the production of “pre-dilution plates”, “master plates” and “assay plates”.
Pre-dilution plates: 96 polypropylene well plates were used as pre-dilution plates. A total of 4 pre-dilution plates were prepared including 10 test compounds each on the plate positions A1-A10, one standard compound at A11 and one DMSO control at A12. All dilution steps were done on a HamiltonSTAR robot.
Master plates: 100 μL of individual compound dilutions including standard compound and controls of the 4 “pre-dilution plates” were transferred into a 384 “master plate” including the following concentrations 1,820, […], 182, 54.6, 18.2, 5.46, 1.82 and 0.546 μM, respectively in 90% of DMSO.
Assay plates: Identical “assay plates” were then prepared by pipetting 50 nL each of compound dilutions of the “master plates” into 384-well “assay plates” by means of a HummingBird 384-channel dispenser. These plates were used directly for the assay which was performed in a total volume of 9.05 μL. This led to a final compound concentration of 10, 3.0, 1.0, 0.3, 0.1, 0.03, 0.01 and 0.003 μM and a final DMSO concentration of 0.5% in the assay.
Regarding `CC(c1ccc2ncccc2c1)c1cnc2ccc(-c3cnn(CCO)c3)nn12` (racemic) [Example 177, (rac)-2-{4-[3-(1-Quinolin-6-yl-ethyl)-imidazo[1,2-b]pyridazin-6-yl]-pyrazol-1-yl}-ethanol], the IC50 was determined as 20 nM.

For `Cn1cc(-c2ccc3ncc(Cc4ccc5ncc(-c6cccnc6)n5c4)n3n2)cn1` [Example 306, 6-(1-Methyl-1H-pyrazol-4-yl)-3-(3-pyridin-3-yl-imidazo[1,2-a]pyridin-6-ylmethyl)-imidazo[1,2-b]pyridazine], the IC50 came out at 100 nM.

`c1cnc2ccc(Cc3cnc4ccc(-c5cc6ccccc6s5)nn34)cc2c1` [Example 38, 6-(6-Benzo[b]thiophen-2-yl-imidazo[1,2-b]pyridazin-3-ylmethyl)-quinoline]: the IC50 stood at 39 nM.

Consider `Fc1cc2ncccc2c(F)c1Cc1cnc2ccc(-c3cnn(C4CCNCC4)c3)nn12` [Example 245, 5,7-Difluoro-6-[6-(1-piperidin-4-yl-1H-pyrazol-4-yl)-imidazo[1,2-b]pyridazin-3-ylmethyl]-quinoline], for which the IC50 is 44 nM.

Turning to `N#Cc1cc(-c2ccc3ncc(Cc4ccc5ncccc5c4)n3n2)ccc1F` [Example 67, 2-Fluoro-5-(3-quinolin-6-ylmethyl-imidazo[1,2-b]pyridazin-6-yl)-benzonitrile], the IC50 was determined as 160 nM.

For the compound `Cn1cc(-c2ccc3ncc(Cc4ccc5nccn5c4)n3n2)cn1` [Example 10, 3-Imidazo[1,2-a]pyridin-6-ylmethyl-6-(1-methyl-1H-pyrazol-4-yl)-imidazo[1,2-b]pyridazine], the IC50 was 21.5 nM.

For `Cn1cc(-c2ccc3ncc(Cc4ccc5ncc(C#N)n5c4)n3n2)cn1` [Example 302, 6-[6-(1-Methyl-1H-pyrazol-4-yl)-imidazo[1,2-b]pyridazin-3-ylmethyl]-imidazo[1,2-a]pyridine-3-carbonitrile], the IC50 turned out to be 94 nM.

On to `c1cncc(-c2ccc3ncc(Cc4ccc5ncccc5c4)n3n2)c1` [Example 29, 6-(6-Pyridin-3-yl-imidazo[1,2-b]pyridazin-3-ylmethyl)-quinoline], for which the IC50 turned out to be 40 nM.

On to `Cn1cc(-c2ccc3ncc(Cc4cc5cnn(C)c5cc4F)n3n2)cn1` [Example 277, 3-(6-Fluoro-1-methyl-1H-indazol-5-ylmethyl)-6-(1-methyl-1H-pyrazol-4-yl)-imidazo[1,2-b]pyridazine], for which the IC50 was 61 nM.

For `C[C@@H](c1ccc2c(cnn2CCO)c1)c1cnc2ccc(-c3cnn(C)c3)nn12` [Example 275, 2-(5-{(S)-1-[6-(1-Methyl-1H-pyrazol-4-yl)-imidazo[1,2-b]pyridazin-3-yl]-ethyl}-indazol-1-yl)ethanol], the IC50 amounted to 150 nM.

For the compound `OCCn1cc(-c2ccc3ncc(Cc4ccc5nccn5c4)n3n2)cn1` [Example 215, 2-[4-(3-Imidazo[1,2-a]pyridin-6-ylmethyl-imidazo[1,2-b]pyridazin-6-yl)-pyrazol-1-yl]-ethanol], the IC50 came out at 130 nM.

Consider `CC(c1ccc2ncccc2c1Cl)c1cnc2ccc(-c3cnn(CCO)c3)nn12` (racemic) [Example 188, (rac)-2-(4-{3-[1-(5-Chloro-quinolin-6-yl)-ethyl]-imidazo[1,2-b]pyridazin-6-yl}-pyrazol-1-yl)ethanol], for which the IC50 came out at 5.6 nM.

With `Cn1cc(-c2ccc3ncc(C(C)(O)c4cc5cccnc5cc4F)n3n2)cn1` (racemic) [Example 174, (rac)-1-(7-Fluoro-quinolin-6-yl)-1-[6-(1-methyl-1H-pyrazol-4-yl)-imidazo[1,2-b]pyridazin-3-yl]-ethanol], the concentration for half-maximal inhibition (IC50) was determined as 120 nM.

Take `CCN1CCC(n2cc(-c3ccc4ncc(Cc5cc6cccnc6cc5F)n4n3)cn2)CC1` [Example 148, 6-{6-[1-(1-Ethyl-piperidin-4-yl)-1H-pyrazol-4-yl]-imidazo[1,2-b]pyridazin-3-ylmethyl}-7-fluoro-quinoline]: the IC50 was determined as 16 nM.

In the case of `CC(C)Nc1ccc2ncc(Cc3ccc4ncccc4c3)n2n1` [Example 91, Isopropyl-(3-quinolin-6-ylmethyl-imidazo[1,2-b]pyridazin-6-yl)-amine], the IC50 was determined as 29 nM.

`c1cnc2ccc(Cc3cnc4ccc(Nc5ccncn5)nn34)cc2c1` [Example 131, Pyrimidin-4-yl-(3-quinolin-6-ylmethyl-imidazo[1,2-b]pyridazin-6-yl)-amine]: the IC50 stood at 180 nM.

On to `CC(c1cc2cccnc2cc1F)c1cnc2ccc(-c3cnn(C4CCNCC4)c3)nn12` (racemic) [Example 258, (rac)-7-Fluoro-6-{1-[6-(1-piperidin-4-yl-1H-pyrazol-4-yl)-imidazo[1,2-b]pyridazin-3-yl]-ethyl}-quinoline], for which the IC50 was 43 nM.

Take `Cn1cc(-c2ccc3ncc(Cc4ccc5ncc(CO)n5c4)n3n2)cn1` [Example 300, {6-[6-(1-Methyl-1H-pyrazol-4-yl)-imidazo[1,2-b]pyridazin-3-ylmethyl]-imidazo[1,2-a]pyridin-3-yl}-methanol]: the IC50 was found to be 300 nM.

Consider `CN(C)c1cccc(-c2ccc3ncc(Cc4ccc5ncccc5c4)n3n2)c1` [Example 36, Dimethyl-[3-(3-quinolin-6-ylmethyl-imidazo[1,2-b]pyridazin-6-yl)-phenyl]-amine], for which the IC50 turned out to be 65 nM.

As for `Cn1cc(-c2ccc3ncc(Cc4cc5cccnc5cc4Cl)n3n2)cn1` [Example 241, 7-Chloro-6-[6-(1-methyl-1H-pyrazol-4-yl)-imidazo[1,2-b]pyridazin-3-ylmethyl]-quinoline], the IC50 is 37.5 nM.

In the case of `N#Cc1ccc2ncc(Cc3ccc4ncccc4c3)n2n1` [Example 208, 3-Quinolin-6-ylmethyl-imidazo[1,2-b]pyridazine-6-carbonitrile], the IC50 was determined as 52 nM.

Consider `COc1cccc(Nc2ccc3ncc(Cc4ccc5ncccc5c4)n3n2)c1` [Example 140, (3-Methoxy-phenyl)-(3-quinolin-6-ylmethyl-imidazo[1,2-b]pyridazin-6-yl)-amine], for which the IC50 was 310 nM.

Regarding `CSc1ccc(-c2ccc3ncc(Cc4ccc5ncccc5c4)n3n2)cc1` [Example 23, 6-[6-(4-Methylsulfanyl-phenyl)-imidazo[1,2-b]pyridazin-3-ylmethyl]-quinoline], the IC50 is 125 nM.

In the case of `c1ccc2cc(-c3ccc4ncc(Cc5ccc6ncccc6c5)n4n3)ccc2c1` [Example 17, 6-(6-Naphthalen-2-yl-imidazo[1,2-b]pyridazin-3-ylmethyl)-quinoline], the IC50 was found to be 210 nM.

For the compound `NC(=O)c1ccc(-c2ccc3ncc(Cc4ccc5ncccc5c4)n3n2)cc1Cl` [Example 15, 2-Chloro-4-(3-quinolin-6-ylmethyl-imidazo[1,2-b]pyridazin-6-yl)-benzamide], the IC50 amounted to 9.5 nM.

For the compound `Cn1cc(-c2ccc3ncc(Cc4ccc5[nH]ncc5c4)n3n2)cn1` [Example 150, 3-(1H-Indazol-5-ylmethyl)-6-(1-methyl-1H-pyrazol-4-yl)-imidazo[1,2-b]pyridazine], the IC50 is 56 nM.

As to `CN1CCC(n2cc(-c3ccc4ncc(Cc5ccc6ncccc6c5Cl)n4n3)cn2)CC1` [Example 228, 5-Chloro-6-{6-[1-(1-methyl-piperidin-4-yl)-1H-pyrazol-4-yl]-imidazo[1,2-b]pyridazin-3-ylmethyl}-quinoline], the IC50 worked out at 99 nM.

For the compound `C[C@@H](c1cc2cn[nH]c2cc1F)c1cnc2ccc(-c3cnn(C)c3)nn12` [Example 165, 3-[(S)-1-(6-Fluoro-1H-indazol-5-yl)-ethyl]-6-(1-methyl-1H-pyrazol-4-yl)-imidazo[1,2-b]pyridazine], the IC50 was 12 nM.
